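Results reflect a 48-hour exposure of cells in 96-well plates to compound at five concentrations. GI50 is the concentration that inhibits growth by half. At the TGI there is no net growth.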
Tests used:
Assay in all cases: NCI-60 cell line screen, 48 h
BT-549 breast = system: BT-549 breast
HCT-116 colon = system: HCT-116 colon
LOX IMVI melanoma = system: LOX IMVI melanoma
MDA-MB-231 breast = system: MDA-MB-231 breast
MDA-MB-435 = system: MDA-MB-435
MOLT-4 leukemia = system: MOLT-4 leukemia
OVCAR-5 ovarian = system: OVCAR-5 ovarian
SF-268 CNS = system: SF-268 CNS
SNB-19 CNS = system: SNB-19 CNS
UACC-62 melanoma = system: UACC-62 melanoma

`COC(=O)c1cc2c3ccccc3n3c(=O)c4cc5ccccc5nc4c(n1)c23` was tested, and the GI50 (BT-549 breast) was > 100 µM, the TGI (BT-549 breast) was > 100 µM and the GI50 (HCT-116 colon) was > 100 µM. The TGI (HCT-116 colon) was > 100 µM, the GI50 (LOX IMVI melanoma) was > 100 µM and the TGI (LOX IMVI melanoma) was > 100 µM. For the same molecule, the GI50 (MDA-MB-231 breast) was > 100 µM, the TGI (MDA-MB-231 breast) was > 100 µM and the GI50 (MDA-MB-435) was > 100 µM. The TGI (MDA-MB-435) was > 100 µM, the GI50 (MOLT-4 leukemia) was > 100 µM and the TGI (MOLT-4 leukemia) was > 100 µM. For the same molecule, the GI50 (OVCAR-5 ovarian) was > 100 µM, the TGI (OVCAR-5 ovarian) was > 100 µM and the GI50 (SF-268 CNS) was > 100 µM. The TGI (SF-268 CNS) was > 100 µM, the GI50 (SNB-19 CNS) was > 100 µM and the TGI (SNB-19 CNS) was > 100 µM. For the same molecule, the GI50 (UACC-62 melanoma) was > 100 µM and the TGI (UACC-62 melanoma) was > 100 µM.
With `COc1cc(-c2ccc(-c3ccc(C(=N)N)nc3)s2)cc(OC)c1OC` the GI50 (BT-549 breast) was 1.67 µM, the TGI (BT-549 breast) was 3.49 µM and the GI50 (HCT-116 colon) was 1.47 µM. The TGI (HCT-116 colon) was 2.87 µM, the GI50 (LOX IMVI melanoma) was 1.87 µM and the TGI (LOX IMVI melanoma) was 3.48 µM. For the same molecule, the GI50 (MDA-MB-231 breast) was 1.85 µM, the TGI (MDA-MB-231 breast) was 4.2 µM and the GI50 (MDA-MB-435) was 1.62 µM. The TGI (MDA-MB-435) was 3.05 µM, the GI50 (MOLT-4 leukemia) was 2.53 µM and the TGI (MOLT-4 leukemia) was 6.9 µM. It also gave a GI50 (OVCAR-5 ovarian) of 2.1 µM, a TGI (OVCAR-5 ovarian) of 5.38 µM and a GI50 (SF-268 CNS) of 14.6 µM. For the same molecule, the TGI (SF-268 CNS) was 33.2 µM, the GI50 (SNB-19 CNS) was 4.73 µM and the TGI (SNB-19 CNS) was 16.3 µM. The GI50 (UACC-62 melanoma) was 1.73 µM and the TGI (UACC-62 melanoma) was 3.3 µM.
With `C=C1C(C2(C)C(OC(C)=O)CC(=O)OC(C)(COC(C)=O)C2CC(=O)OC)C(OC=O)C(OC(=O)C(O)C(C)CC)C2(C)C(c3ccoc3)CC(=O)C12O` (stereo not given) the TGI (BT-549 breast) was > 30.5 µM, the TGI (HCT-116 colon) was > 100 µM and the TGI (LOX IMVI melanoma) was > 100 µM. The TGI (MDA-MB-231 breast) was > 100 µM, the TGI (MDA-MB-435) was > 100 µM and the TGI (MOLT-4 leukemia) was > 100 µM. For the same molecule, the TGI (OVCAR-5 ovarian) was > 100 µM, the TGI (SF-268 CNS) was > 100 µM and the TGI (SNB-19 CNS) was > 100 µM. For the same molecule, the TGI (UACC-62 melanoma) was > 100 µM.
With `CCN(CC)CCC(=O)c1ccc(C)cc1` the TGI (BT-549 breast) was 37.6 µM, the TGI (HCT-116 colon) was 36.8 µM and the TGI (LOX IMVI melanoma) was > 100 µM. For the same molecule, the TGI (MDA-MB-231 breast) was 29 µM, the TGI (MDA-MB-435) was 33.6 µM and the TGI (MOLT-4 leukemia) was 52.2 µM. For the same molecule, the TGI (OVCAR-5 ovarian) was 31.4 µM, the TGI (SF-268 CNS) was > 100 µM and the TGI (SNB-19 CNS) was > 100 µM. For the same molecule, the TGI (UACC-62 melanoma) was > 100 µM.
`C=C1C(=O)O[C@H]2[C@H]1CC/C(COC(=O)c1cc3ccccc3o1)=C\CC[C@@]1(C)O[C@@H]21` gave a GI50 (BT-549 breast) of 1.48 µM, a TGI (BT-549 breast) of 3.29 µM and a GI50 (HCT-116 colon) of 0.32 µM. It also gave a TGI (HCT-116 colon) of 1.3 µM, a GI50 (LOX IMVI melanoma) of 1.42 µM and a TGI (LOX IMVI melanoma) of 2.81 µM. The GI50 (MDA-MB-231 breast) was 1.64 µM, the TGI (MDA-MB-231 breast) was 3.55 µM and the GI50 (MDA-MB-435) was 1.43 µM. The TGI (MDA-MB-435) was 2.9 µM, the GI50 (MOLT-4 leukemia) was 1.77 µM and the TGI (MOLT-4 leukemia) was 6.06 µM. It also gave a GI50 (OVCAR-5 ovarian) of 1.88 µM, a TGI (OVCAR-5 ovarian) of 3.75 µM and a GI50 (SF-268 CNS) of 1.56 µM. The TGI (SF-268 CNS) was 3.27 µM, the GI50 (SNB-19 CNS) was 3.16 µM and the TGI (SNB-19 CNS) was 13.3 µM. For the same molecule, the GI50 (UACC-62 melanoma) was 1.68 µM and the TGI (UACC-62 melanoma) was 3.23 µM.
`Cc1occc1C(=S)Nc1ccc(Cl)c(C(=O)OC(C(C)C)C(C)C)c1` showed a TGI (BT-549 breast) of 34.6 µM, a TGI (HCT-116 colon) of 24.5 µM and a TGI (LOX IMVI melanoma) of 26.3 µM. For the same molecule, the TGI (MDA-MB-231 breast) was 27.2 µM, the TGI (MDA-MB-435) was 65.8 µM and the TGI (MOLT-4 leukemia) was 23.1 µM. For the same molecule, the TGI (OVCAR-5 ovarian) was 57.2 µM, the TGI (SF-268 CNS) was 45.1 µM and the TGI (SNB-19 CNS) was 58.4 µM. For the same molecule, the TGI (UACC-62 melanoma) was 25.7 µM.
`C=C1C(=O)OC2C1CCC(C)C1C=CC(=O)C12C` (stereo not given) was tested, and the TGI (BT-549 breast) was 3.46 µM, the TGI (HCT-116 colon) was 3.91 µM and the TGI (LOX IMVI melanoma) was 5.25 µM. It also gave a TGI (MDA-MB-231 breast) of 4.83 µM, a TGI (MDA-MB-435) of 3.34 µM and a TGI (MOLT-4 leukemia) of 10.4 µM. The TGI (OVCAR-5 ovarian) was 13.8 µM, the TGI (SF-268 CNS) was 39.5 µM and the TGI (SNB-19 CNS) was 46.1 µM. The TGI (UACC-62 melanoma) was 4.11 µM.
In the case of `CCCN(CCC)c1ccc(/C=C/c2ccc3cc(OCC)ccc3n2)cc1`, the GI50 (BT-549 breast) is reported as > 100 µM, the TGI (BT-549 breast) is reported as > 100 µM and the GI50 (HCT-116 colon) is reported as 31.6 µM. For the same molecule, the TGI (HCT-116 colon) was > 100 µM, the GI50 (LOX IMVI melanoma) was > 100 µM and the TGI (LOX IMVI melanoma) was > 100 µM. The GI50 (MDA-MB-231 breast) was > 100 µM, the TGI (MDA-MB-231 breast) was > 100 µM and the GI50 (MDA-MB-435) was > 100 µM. The TGI (MDA-MB-435) was > 100 µM, the GI50 (MOLT-4 leukemia) was > 100 µM and the TGI (MOLT-4 leukemia) was > 100 µM. The GI50 (OVCAR-5 ovarian) was > 100 µM, the TGI (OVCAR-5 ovarian) was > 100 µM and the GI50 (SF-268 CNS) was > 100 µM. For the same molecule, the TGI (SF-268 CNS) was > 100 µM, the GI50 (SNB-19 CNS) was > 100 µM and the TGI (SNB-19 CNS) was > 100 µM. The GI50 (UACC-62 melanoma) was 72.8 µM and the TGI (UACC-62 melanoma) was > 100 µM.
`Cc1nc2sc(C(=O)Nc3cccc4ccccc34)c(N)c2cc1C(O)c1ccccc1` (stereo not given) showed a GI50 (BT-549 breast) of 0.144 µM, a TGI (BT-549 breast) of 3.63 µM and a GI50 (HCT-116 colon) of 0.0439 µM. For the same molecule, the TGI (HCT-116 colon) was 10.9 µM, the GI50 (LOX IMVI melanoma) was 0.0568 µM and the TGI (LOX IMVI melanoma) was 6.67 µM. The GI50 (MDA-MB-231 breast) was 0.15 µM, the TGI (MDA-MB-231 breast) was 5.36 µM and the GI50 (MDA-MB-435) was 0.0205 µM. The TGI (MDA-MB-435) was 0.0469 µM, the GI50 (MOLT-4 leukemia) was 0.0796 µM and the TGI (MOLT-4 leukemia) was > 65.7 µM. For the same molecule, the GI50 (OVCAR-5 ovarian) was 0.28 µM, the TGI (OVCAR-5 ovarian) was > 100 µM and the GI50 (SF-268 CNS) was 0.174 µM. For the same molecule, the TGI (SF-268 CNS) was 11.2 µM, the GI50 (SNB-19 CNS) was 0.108 µM and the TGI (SNB-19 CNS) was > 66.7 µM. It also gave a GI50 (UACC-62 melanoma) of 0.0747 µM and a TGI (UACC-62 melanoma) of 12.3 µM.
